≈ marks a conversion by molar mass, not a printed value.
Assays:
[1] = target: T1, C-C chemokine receptor type 3 (Homo sapiens, UniProt P51677); experiment: Displacement of [125I]eotaxin from CCR3 receptor in human eosinophils
T1 sequence (P51677 whole entry): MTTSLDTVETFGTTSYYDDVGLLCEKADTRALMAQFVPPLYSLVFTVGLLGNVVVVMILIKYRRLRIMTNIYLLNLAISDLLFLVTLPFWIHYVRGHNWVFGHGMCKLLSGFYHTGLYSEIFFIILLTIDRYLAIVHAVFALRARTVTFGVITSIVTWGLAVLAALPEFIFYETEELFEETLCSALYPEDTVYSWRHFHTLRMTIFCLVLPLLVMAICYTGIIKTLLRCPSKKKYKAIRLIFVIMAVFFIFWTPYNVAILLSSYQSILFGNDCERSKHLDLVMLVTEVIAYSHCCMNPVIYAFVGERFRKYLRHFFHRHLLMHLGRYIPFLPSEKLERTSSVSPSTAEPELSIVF

Hepatocyte [2] = experiment: Metabolic stability in rat hepatocytes after 2 hrs; format: ADME, cell-based
Hepatocyte [3] = experiment: Metabolic stability in rat hepatocytes after 19 hrs; format: ADME, cell-based
[4] = Metabolic stability in rat liver microsomes assessed as intrinsic clearance; format: ADME, Microsome
[5] = Solubility in water at pH 7.4
[6] = Permeability from apical to basolateral side of Caco-2 cell membrane; conditions: human
[7] = target: T1, C-C chemokine receptor type 3; experiment: Antagonist activity at human CCR3 receptor assessed as inhibition of calcium flux; format: functional

SMILES	IC50 [1] [nM]	Stability (Hepatocyte [2]) [%]	Stability (Hepatocyte [3]) [%]	microsomal CLint [4] [µL/min/mg]	solubility [5] [µg/mL]	Papp A→B [6] [×10⁻⁶ cm/s]	IC50 [7] [nM]
Cc1c(CN(CCc2ccc(Cl)cc2)C2CCN(C(=O)c3c(F)cccc3F)CC2)c(=O)n(C2CCCCC2)n1C	100	–	–	–	–	–	–
Cc1c(CN(CCc2ccccn2)C2CCN(C(=O)c3c(F)cccc3F)CC2)c(=O)n(-c2ccc(F)cc2)n1C	1000	35	78	82	–	–	–
Cc1c(CN(CCc2ccc(Cl)cc2)C2CCN(C(=O)c3c(F)cccc3F)CC2)c(=O)n(-c2ccc(N)cc2)n1C	79	–	–	–	–	–	–
Cc1c(CN(CCc2ccc(Cl)cc2)C2CCN(C(=O)c3c(F)cccc3F)CC2)c(=O)n(-c2ccc(C#N)cc2)n1C	158	–	–	–	–	–	–
COc1ccc(-n2c(=O)c(CN(CCc3ccc(Cl)cc3)C3CCN(C(=O)c4c(F)cccc4F)CC3)c(C)n2C)cc1	100	–	–	–	–	–	–
Cc1c(CN(CCc2ccc(Cl)cc2)C2CCN(C(=O)c3c(F)cccc3F)CC2)c(=O)n(-c2ccc(C(=O)O)cc2)n1C	2500	–	–	–	–	–	–
Cc1c(CN(CCc2ccc(Cl)cc2)C2CCN(C(=O)c3c(F)cccc3F)CC2)c(=O)n(-c2ccc(Cl)cc2)n1C	63	–	–	–	–	–	–
COc1ccncc1-n1c(=O)c(CN(CCc2ccc(Cl)cc2)C2CCN(C(=O)c3c(F)cccc3F)CC2)c(C)n1C	250	–	–	–	–	–	–
Cc1c(CN(CCc2ccc(F)cc2)C2CCN(C(=O)c3c(F)cccc3F)CC2)c(=O)n(-c2ccc(F)cc2)n1C	200	–	–	303	100 (≈ 172 µM)	–	–
Cc1c(CN(CCc2ccc(N)cc2)C2CCN(C(=O)c3c(F)cccc3F)CC2)c(=O)n(-c2ccc(F)cc2)n1C	2500	23	71	< 50	900 (≈ 1560 µM)	< 1	–
Cc1c(CN(CCc2ccc(Cl)cc2)C2CCN(C(=O)c3c(F)cccc3F)CC2)c(=O)n(-c2ccccc2)n1C	32	–	–	–	–	–	–
Cc1c(CN(CCCCc2ccccc2)C2CCN(C(=O)c3cccc4ccccc34)CC2)c(=O)n(-c2ccccc2)n1C	158	–	–	–	–	–	–
Cc1c(CN(CCc2ccc(Cl)cc2)C2CCN(C(=O)c3c(F)cccc3F)CC2)c(=O)n(-c2ccc(F)cc2)n1C	20	52	95	472	1 (≈ 1.67 µM)	8.1	16
Cc1c(CN(CCc2ccc([N+](=O)[O-])cc2)C2CCN(C(=O)c3c(F)cccc3F)CC2)c(=O)n(-c2ccc(F)cc2)n1C	6.3	35	95	235	100 (≈ 165 µM)	–	–
Cc1ccc(C(=O)N2CCC(N(CCc3ccc([N+](=O)[O-])cc3)Cc3c(C)n(C)n(-c4ccc(F)cc4)c3=O)CC2)c(C)n1	12	38	94	79	1200 (≈ 2000 µM)	–	–
Cc1c(CN(CCc2ccc([N+](=O)[O-])cc2)C2CCN(C(=O)c3ccccn3)CC2)c(=O)n(-c2ccc(F)cc2)n1C	12	29	82	62	1260 (≈ 2200 µM)	7.8	–
Cc1c(CN(CCc2ccc(S(N)(=O)=O)cc2)C2CCN(C(=O)c3c(F)cccc3F)CC2)c(=O)n(-c2ccc(F)cc2)n1C	> 10000	43	86	< 50	400 (≈ 623 µM)	< 1	–
CC(=O)Nc1ccc(-n2c(=O)c(CN(CCc3ccc(Cl)cc3)C3CCN(C(=O)c4c(F)cccc4F)CC3)c(C)n2C)cc1	400	–	–	–	–	–	–
Cc1c(CN(CCc2ccc(Cl)cc2)C2CCN(C(=O)c3cccc[n+]3[O-])CC2)c(=O)n(-c2ccc(F)cc2)n1C	200	15	55	< 50	> 2000	1.3	–
Cc1c(CN(CCc2ccc(Cl)cc2)C2CCN(C(=O)c3c(F)cccc3F)CC2)c(=O)n(-c2ccc(N(C)C)cc2)n1C	100	–	–	–	–	–	–
Cc1c(CN(CCc2ccc(Cl)cc2)C2CCN(C(=O)c3c(F)cccc3F)CC2)c(=O)n(-c2cnccc2Cl)n1C	100	–	–	–	–	–	–
Cc1c(CN(CCc2ccc(Cl)cc2)C2CCN(C(=O)c3c(F)cccc3F)CC2)c(=O)n(-c2cccc(F)c2)n1C	100	–	–	–	–	–	–
Cc1c(CN(CCc2ccc(Cl)cc2)C2CCN(C(=O)c3c(F)cccc3F)CC2)c(=O)n(-c2ccccc2F)n1C	40	–	–	–	–	–	–
Cc1c(CN(CCc2ccc(Cl)cc2)C2CCN(C(=O)c3c(F)cccc3F)CC2)c(=O)n(-c2ccc(O)cc2)n1C	100	–	–	–	–	–	–
Cc1c(CN(CCc2ccc(Cl)cc2)C2CCN(C(=O)c3c(F)cccc3F)CC2)c(=O)n(-c2ccc([N+](=O)[O-])cc2)n1C	100	–	–	–	–	–	–
Cc1c(CN(CCc2ccc(Cl)cc2)C2CCN(C(=O)c3c(F)cccc3F)CC2)c(=O)n(-c2ccccn2)n1C	25	–	–	–	–	–	–
Cc1c(CN(CCc2cccnc2)C2CCN(C(=O)c3c(F)cccc3F)CC2)c(=O)n(-c2ccc(F)cc2)n1C	2500	–	–	113	> 2000	–	–
